Data on 16 molecules can be found in patent US11014904B2, “1,2,4-triazine-3-amine derivative, preparation method therefor, and use thereof in medicine” (Jiangsu Hengrui Medicine Co., Ltd., priority 2017, dated 2021).

By IC50 is commonly meant the point on the concentration scale where inhibition reaches its midpoint. Low readings indicate higher potency, high ones lower potency.

Molecules are shown by their SMILES.

Holding throughout (format): cell-based
Test [1] addresses T1, adenosine A1 receptor (A1R) (Homo sapiens, UniProt P30542).
T1 construct: expressed in transfected cells; host or cells: CHO-K1
T1 sequence (P30542 1-326): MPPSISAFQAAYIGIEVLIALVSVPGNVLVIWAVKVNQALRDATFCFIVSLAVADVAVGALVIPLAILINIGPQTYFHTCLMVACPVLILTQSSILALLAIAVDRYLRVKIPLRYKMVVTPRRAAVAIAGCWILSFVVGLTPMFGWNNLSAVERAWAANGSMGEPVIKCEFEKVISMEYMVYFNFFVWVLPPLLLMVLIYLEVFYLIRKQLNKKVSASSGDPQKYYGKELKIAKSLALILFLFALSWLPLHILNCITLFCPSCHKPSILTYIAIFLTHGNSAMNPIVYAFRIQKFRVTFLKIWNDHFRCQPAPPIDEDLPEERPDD
The experiment in a line: Inhibition of the adenosine A1 receptor cAMP signaling pathway in CHO-K1/A1R cells (HTRF). The conditions noted are these: for IC50: CHO-K1/A1R cells, cAMP, forskolin 10 μM, CPA 10 nM; for IC50 ratio (A1R/A2aR): selectivity A1R over A2aR. An excerpt: (§1) Determination of the inhibition activity of the compounds of the present invention on the adenosine A2a receptor (A2aR) cAMP signaling pathway, the adenosine A2b receptor (A2bR) cAMP signaling pathway, the adenosine A1 receptor (A1R) cAMP signaling pathway and the adenosine A3 receptor (A3R) cAMP signaling pathway.
(§2) The inhibition activity of the compounds of the present invention on the adenosine A2a receptor (A2aR) cAMP signaling pathway, the adenosine A2b receptor cAMP signaling pathway, the adenosine A1 receptor cAMP signaling pathway and the adenosine A3 receptor cAMP signaling pathway was determined by the following method. The experimental method is briefly described as follows:
2.3 Adenosine A1 Receptor
CHO-K1/A1R cells were cultured in DMEM/F12 medium containing 10% fetal bovine serum and 1 mg/ml G418. The cells were digested with the cell separation buffer during the experiment. The cells were then resuspended in the balanced salt buffer containing 20 mM HEPES and 0.1% bovine serum albumin and counted, and the cell density was adjusted to 5×10^5 cells/ml. In the 384-well plate, each well was added with 12.5 μl of cell suspension, and 6.25 μl of test compound (4× concentration) formulated with the balanced salt buffer containing 20 mM HEPES, 0.1% bovine serum albumin, 54 μM rolipram and 2.7 U/ml adenosine deaminase, and the plate was incubated at room temperature for 30 minutes. Each well was then added with 6.25 μl of forskolin and N6-cyclopentyladenosine (4× concentration) formulated with the balanced salt buffer containing 20 mM HEPES, 0.1% bovine serum albumin, 54 μM rolipram and 2.7 U/ml adenosine deaminase, and the plate was incubated at room temperature for 30 minutes. The final concentrations of the compounds were: 100000, 10000, 1000, 100, 10, 1, 0.1 and 0 nM. The final concentrations of forskolin was 10 μM. The final concentrations of CPA was 10 nM. Intracellular cAMP concentration was detected with the cAMP dynamic 2 kit. cAMP-d2 and Anti-cAMP-Eu-Cryptate were diluted respectively with the cAMP lysis buffer at a ratio of 1:4. Each well was added with 12.5 μl of diluted cAMP-d2, followed by addition of 12.5 μl of diluted Anti-cAMP-Eu-Cryptate, and the plate was incubated at room temperature in the dark for 1 hour. The HTRF signal values were read by the PHERAstar multi-function microplate reader.
For orientation: TR-FRET usually uses a lanthanide donor and a delayed reading to cut background.

The target in test [2] is T2, adenosine A3 receptor (A3R) (Homo sapiens, UniProt P0DMS8).
T2 construct: expressed in transfected cells; host or cells: CHO-K1
T2 sequence (P0DMS8 1-318): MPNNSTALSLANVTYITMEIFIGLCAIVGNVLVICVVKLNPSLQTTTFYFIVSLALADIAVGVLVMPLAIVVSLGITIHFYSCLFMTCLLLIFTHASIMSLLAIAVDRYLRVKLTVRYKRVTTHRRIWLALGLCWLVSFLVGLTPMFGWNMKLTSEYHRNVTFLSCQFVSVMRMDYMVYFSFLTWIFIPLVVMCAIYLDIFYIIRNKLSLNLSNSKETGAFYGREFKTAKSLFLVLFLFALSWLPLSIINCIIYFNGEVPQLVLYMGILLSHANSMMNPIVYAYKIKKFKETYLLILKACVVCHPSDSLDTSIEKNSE
The experiment in a line: Inhibition of the adenosine A3 receptor cAMP signaling pathway in CHO-K1/A3R cells (HTRF). The conditions noted are these: for IC50: CHO-K1/A3R cells, cAMP, forskolin 10 μM, 2Cl-IB-MECA 5 nM; for IC50 ratio (A3R/A2aR): selectivity A3R over A2aR.
From the text: as §1, §2
2.4 Adenosine A3 Receptor
CHO-K1/A3R cells were cultured in DMEM/F12 medium containing 10% fetal bovine serum and 10 μg/ml puromycin. The cells were digested with the cell separation buffer during the experiment. The cells were resuspended in the balanced salt buffer containing 20 mM HEPES and 0.1% bovine serum albumin and counted, and the cell density was adjusted to 5×10^5 cells/ml. In the 384-well plate, each well was added with 12.5 μl of cell suspension, and 6.25 μl of test compound (4× concentration) formulated with the balanced salt buffer containing 20 mM HEPES, 0.1% bovine serum albumin, 54 μM rolipram and 2.7 U/ml adenosine deaminase, and the plate was incubated at room temperature for 30 minutes. Each well was then added with 6.25 μl of forskolin and 2Cl-IB-MECA (4× concentration) formulated with the balanced salt buffer containing 20 mM HEPES, 0.1% bovine serum albumin, 54 μM rolipram and 2.7 U/ml adenosine deaminase, and the plate was incubated at room temperature for 30 minutes. The final concentrations of the compounds were: 100000, 10000, 1000, 100, 10, 1, 0.1 and 0 nM. The final concentrations of forskolin was 10 μM. The final concentration of 2Cl-IB-MECA was 5 nM. Intracellular cAMP concentration was detected with the cAMP dynamic 2 kit. cAMP-d2 and Anti-cAMP-Eu-Cryptate were diluted respectively with the cAMP lysis buffer at a ratio of 1:4. Each well was added with 12.5 μl of diluted cAMP-d2, followed by addition of 12.5 μl of diluted Anti-cAMP-Eu-Cryptate, and the plate was incubated at room temperature in the dark for 1 hour. The HTRF signal values were read by the PHERAstar multi-function microplate reader.

The target of test [3] is T3, adenosine A2a receptor (A2aR) (Homo sapiens, UniProt P29274).
T3 construct: expressed in transfected cells; host or cells: CHO-K1
T3 sequence (P29274 whole entry): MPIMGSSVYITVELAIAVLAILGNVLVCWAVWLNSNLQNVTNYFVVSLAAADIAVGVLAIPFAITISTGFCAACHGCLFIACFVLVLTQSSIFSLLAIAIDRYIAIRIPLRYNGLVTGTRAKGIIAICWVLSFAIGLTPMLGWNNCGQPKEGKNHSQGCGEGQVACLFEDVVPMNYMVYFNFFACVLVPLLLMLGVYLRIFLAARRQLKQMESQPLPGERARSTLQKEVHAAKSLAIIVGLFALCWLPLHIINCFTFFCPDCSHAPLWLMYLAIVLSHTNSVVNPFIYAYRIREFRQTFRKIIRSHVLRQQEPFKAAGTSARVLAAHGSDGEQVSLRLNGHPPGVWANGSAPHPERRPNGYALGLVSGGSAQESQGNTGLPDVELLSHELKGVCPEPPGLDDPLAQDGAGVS
The experiment in a line: Inhibition of the adenosine A2a receptor cAMP signaling pathway in CHO-K1/A2aR cells (HTRF). The conditions noted are these: CHO-K1/A2aR cells, cAMP, NECA 20 nM; Table 1.
From the text: as §1, §2
2.1 Adenosine A2a receptor
CHO-K1/A2aR cells were cultured in DMEM/F12 medium containing 10% fetal bovine serum and 800 μg/ml bleomycin. The cells were digested with the cell separation buffer during the experiment. The cells were resuspended in the balanced salt buffer containing 20 mM HEPES and 0.1% bovine serum albumin and counted, and the cell density was adjusted to 10^6 cells/ml. In the 384-well plate, each well was added with 5 μl of cell suspension, and 2.5 μl of test compound (4× concentration) formulated with the balanced salt buffer containing 20 mM HEPES, 0.1% bovine serum albumin, 54 μM rolipram and 2.7 U/ml adenosine deaminase, and the plate was incubated at room temperature for 30 minutes. Each well was then added with 2.5 μl of […] (4× concentration) formulated with the balanced salt buffer containing 20 mM HEPES, 0.1% bovine serum albumin, 54 μM rolipram and 2.7 U/ml adenosine deaminase, and the plate was incubated at room temperature for 30 minutes. The final concentrations of the compounds were: 10000, 2000, 400, 80, 16, 3.2, 0.64, 0.128, 0.0256, 0.00512, and 0.001024 nM. The final concentration of […] was 20 nM. Intracellular cAMP concentration was detected with the cAMP dynamic 2 kit. cAMP-d2 and Anti-cAMP-Eu-Cryptate were diluted respectively with the cAMP lysis buffer at a ratio of 1:4. Each well was added with 5 μl of diluted cAMP-d2, followed by addition of 5 μl of diluted Anti-cAMP-Eu-Cryptate, and the plate was incubated at room temperature in the dark for 1 hour. The HTRF signal values were read by the PHERAstar multi-function microplate reader.

On to `Cc1cc(-c2nnc(N)nc2-c2ccccc2)cc2cccnc12` [Example 1, 6-(8-Methylquinolin-6-yl)-5-phenyl-1,2,4-triazin-3-amine], for which, in test [1], the IC50 turned out to be 121 nM and the “IC50 ratio (A1R/A2aR)” value is listed as 242. In test [2], the half-inhibitory concentration (IC50) is > 10000 nM and the “IC50 ratio (A3R/A2aR)” value was >10^4. Besides, the IC50 in test [3] is 0.5 nM.

Molecule `Cc1cc(-c2nnc(N)nc2-c2ccco2)cc2cccnc12` [Example 6, 5-(Furan-2-yl)-6-(8-methylquinolin-6-yl)-1,2,4-triazin-3-amine] had a half-inhibitory concentration (IC50) in test [3] of 1.3 nM.

`Cc1cc(-c2nnc(N)nc2-c2cccs2)cc2cccnc12` [Example 7, 6-(8-Methylquinolin-6-yl)-5-(thiophen-2-yl)-1,2,4-triazin-3-amine]: in test [3], the concentration for half-maximal inhibition (IC50) stood at 3.1 nM.

The molecule `Cc1cc(-c2nnc(N)nc2-c2ccc(F)cc2)cc2cccnc12` [Example 8, 5-(4-Fluorophenyl)-6-(8-methylquinolin-6-yl)-1,2,4-triazin-3-amine] had an IC50 in test [3] of 3.6 nM.

`Nc1nnc(-c2ccc3ccccc3c2)c(-c2ccccc2)n1` [Example 13, 6-(Naphthalen-2-yl)-5-phenyl-1,2,4-triazin-3-amine, reference compound] came in with a concentration for half-maximal inhibition (IC50) in test [3] of 158 nM.

In test [3], `Nc1nnc(-c2ccc3ncc(F)cc3c2)c(-c2ccccc2)n1` [Example 24, 6-(3-Fluoroquinolin-6-yl)-5-phenyl-1,2,4-triazin-3-amine] had an IC50 of 0.9 nM.

Molecule `Nc1nnc(-c2cc(F)c3ncccc3c2)c(-c2cccc(F)c2)n1` [Example 26, 5-(3-Fluorophenyl)-6-(8-fluoroquinolin-6-yl)-1,2,4-triazin-3-amine] registered an IC50 in test [3] of 1.8 nM.

`Nc1nnc(-c2ccc3nccc(Cl)c3c2)c(-c2ccc(F)cc2)n1` [Example 27, 6-(4-Chloroquinolin-6-yl)-5-(4-fluorophenyl)-1,2,4-triazin-3-amine] displayed an IC50 in test [3] of 2.2 nM. This IC50 and that of the molecule before are within 1.5-fold of each other.

In turn, `Cc1cnc2ccc(-c3nnc(N)nc3-c3ccccc3)cc2c1` [Example 28, 6-(3-Methylquinolin-6-yl)-5-phenyl-1,2,4-triazin-3-amine] registered an IC50 in test [3] of 3 nM. The IC50 values of the last two molecules are within 1.5-fold of each other.

As for `Nc1nnc(-c2ccc3ncncc3c2)c(-c2ccccc2)n1` [Example 29, 5-Phenyl-6-(quinazolin-6-yl)-1,2,4-triazin-3-amine], in test [3], inhibition was half-maximal at 3.5 nM (IC50).

Molecule `Nc1nnc(-c2ccc3ncccc3c2)c(-c2ccc(F)cc2)n1` [Example 30, 5-(4-Fluorophenyl)-6-(quinolin-6-yl)-1,2,4-triazin-3-amine] displayed an IC50 in test [3] of 3.7 nM.

In test [3], `CCc1ccnc2c(F)cc(-c3nnc(N)nc3-c3ccccc3)cc12` [Example 47, 6-(4-Ethyl-8-fluoroquinolin-6-yl)-5-phenyl-1,2,4-triazin-3-amine] yielded an IC50 of 1.6 nM.

In the case of `Cc1cc(-c2nc(N)nnc2-c2ccc3nccc(C)c3c2)ccn1` [Example 48, 5-(2-Methylpyridin-4-yl)-6-(4-methylquinolin-6-yl)-1,2,4-triazin-3-amine], in test [1], the IC50 is 3280 nM and the “IC50 ratio (A1R/A2aR)” value was determined as 1365. Moreover, in test [2], the IC50 was > 10000 nM and the “IC50 ratio (A3R/A2aR)” value was >10^3. The molecule further showed a concentration for half-maximal inhibition (IC50) in test [3] of 2.4 nM.

In turn, `Nc1nnc(-c2ccc3nccc(C4CC4)c3c2)c(-c2ccc(F)cc2)n1` [Example 49, 6-(4-Cyclopropylquinolin-6-yl)-5-(4-fluorophenyl)-1,2,4-triazin-3-amine] showed an IC50 in test [3] of 2.5 nM.

For the molecule `Cc1ncnc2c(F)cc(-c3nnc(N)nc3-c3ccc(F)cc3)cc12` [Example 50, 6-(8-Fluoro-4-methylquinazolin-6-yl)-5-(4-fluorophenyl)-1,2,4-triazin-3-amine], in test [1], half-maximal inhibition (IC50) was put at 3260 nM and the “IC50 ratio (A1R/A2aR)” value is on record as 1018. Besides, in test [2], the IC50 was > 10000 nM and the “IC50 ratio (A3R/A2aR)” value is reported as >10^3. This molecule returned a half-inhibitory concentration (IC50) in test [3] of 3.2 nM.

As to `Nc1nnc(-c2ccc3nccc(C(F)F)c3c2)c(-c2ccc(F)cc2)n1` [Example 51, 6-(4-(Difluoromethyl)quinolin-6-yl)-5-(4-fluorophenyl)-1,2,4-triazin-3-amine], in test [3], the IC50 was 3.5 nM.
